Data as given in ChEMBL document CHEMBL1201862, “PubChem BioAssay data set” (2004).
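Exposure lasted 48 hours, with cells grown in 96-well plates and compounds tested at five concentrations. Abbreviation: GI50, concentration required for 50% inhibition of growth.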 Calls of active or inactive are those of the source. No stated cut-off is given here; in the data, active = GI50 up to about 1.1 µM and inactive = higher.

Assays:
Experiment in all cases: NCI anticancer screen, dose series, 48 h
SK-MEL-28 = system: SK-MEL-28
HCT-116 = system: HCT-116
DU-145 = system: DU-145
UACC-257 = system: UACC-257
M14 = system: M14
PC-3 = system: PC-3
K562 = system: K562
OVCAR-8 = system: OVCAR-8
SF-268 = system: SF-268
786-0 = system: 786-0
OVCAR-5 = system: OVCAR-5
NCI-H226 = system: NCI-H226
MDA-MB-435 = system: MDA-MB-435
A498 = system: A498
CCRF-CEM = system: CCRF-CEM
IGROV-1 = system: IGROV-1
NCI-H522 = system: NCI-H522
SK-MEL-5 = system: SK-MEL-5
HL-60 = system: HL-60
OVCAR-3 = system: OVCAR-3

Measured: GI50

COC(=O)c1c(O)ccc2c1c1c(n2CCc2ccc(OC)c(OC)c2)C(=O)c2ccccc2C1=O
inactive: SK-MEL-28 11.6 µM | HCT-116 12.7 µM | DU-145 15.6 µM | UACC-257 16.6 µM | M14 14.2 µM | PC-3 14.9 µM | K562 20.5 µM | OVCAR-8 10.5 µM | SF-268 17.5 µM | 786-0 13.8 µM | OVCAR-5 19.7 µM | NCI-H226 19.6 µM | MDA-MB-435 14 µM | A498 15.9 µM | CCRF-CEM 9.79 µM | IGROV-1 14.6 µM | NCI-H522 2.69 µM | SK-MEL-5 11.4 µM | HL-60 23.4 µM | OVCAR-3 16.3 µM

O=C(CC(=O)N(C(=O)c1ccccc1)c1ccc(Cl)cc1)N/N=C\c1ccccc1O
inactive: SK-MEL-28 > 100 µM | HCT-116 30.6 µM | DU-145 > 100 µM | UACC-257 > 100 µM | M14 > 100 µM | PC-3 39.3 µM | K562 > 100 µM | OVCAR-8 35.2 µM | SF-268 24.8 µM | 786-0 40 µM | OVCAR-5 36.6 µM | NCI-H226 35.5 µM | MDA-MB-435 > 100 µM | A498 65 µM | CCRF-CEM 2.86 µM | IGROV-1 25.4 µM | NCI-H522 > 100 µM | SK-MEL-5 64 µM | HL-60 > 100 µM | OVCAR-3 > 100 µM

COc1cccc2cc(C(=O)O)c(=O)oc12
inactive: SK-MEL-28 > 100 µM | HCT-116 > 100 µM | DU-145 > 100 µM | UACC-257 > 100 µM | M14 > 100 µM | PC-3 > 100 µM | K562 > 100 µM | OVCAR-8 > 100 µM | SF-268 > 100 µM | 786-0 > 100 µM | OVCAR-5 > 100 µM | NCI-H226 > 100 µM | MDA-MB-435 > 100 µM | A498 > 100 µM | CCRF-CEM > 100 µM | IGROV-1 > 100 µM | NCI-H522 > 100 µM | SK-MEL-5 > 100 µM | HL-60 > 100 µM | OVCAR-3 > 100 µM

Nc1ccc([As](=O)(O)O)cc1 [ARSANILIC ACID]
inactive: SK-MEL-28 > 100 µM | HCT-116 > 100 µM | DU-145 > 100 µM | UACC-257 > 100 µM | M14 > 100 µM | PC-3 > 100 µM | K562 > 100 µM | OVCAR-8 > 100 µM | SF-268 > 100 µM | 786-0 > 100 µM | OVCAR-5 > 100 µM | NCI-H226 > 100 µM | MDA-MB-435 > 100 µM | A498 > 100 µM | CCRF-CEM > 100 µM | IGROV-1 > 100 µM | NCI-H522 > 100 µM | SK-MEL-5 > 100 µM | HL-60 > 100 µM | OVCAR-3 > 100 µM
